Data: patent US20120157401A1, “METHODS FOR TREATING NEUROFIBROMATOSIS” (PTC Therapeutics, Inc., priority 2009, published 2012)
Read-outs that look alike come from different tables or passages of the source.

System: hypoxia-inducible endogenous VEGF expression
Test: Hypoxia-inducible endogenous VEGF expression ELISA in HeLa cells, dose-response EC50 (Table 3)
Type: cell-based, human
Conditions: Homo sapiens
In short: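 HeLa cells kept 24-48 h under hypoxia (1% O2, 5% CO2, nitrogen balance) with or without compound, e.g. seven concentrations; secreted VEGF in conditioned medium quantified by ELISA against a standard curve. Parallel Cell Titer Glo viability under identical conditions excludes cytotoxicity.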

[1] = HeLa cells, hypoxic conditions (1% O2), 24-48 hours, VEGF in conditioned media, read-out: ELISA EC50
[2] = HeLa cells, hypoxic conditions (1% O2), VEGF ELISA of conditioned media, read-out: ELISA EC50

Row | SMILES | EC50 [1] | EC50 (HeLa, read-out: ELISA EC50 μM) | other results
1 | O=C(Oc1ccc(Cl)cc1)N1CCc2c([nH]c3ccc(Cl)cc23)C1c1ccc(O)cc1 (stereo not drawn) [Compound 577] | 0.04 to 0.2 µM |  | 
2 | CC(C)NCCCCOc1ccc(C2c3[nH]c4ccc(Cl)cc4c3CCN2C(=O)Oc2ccc(Cl)cc2)cc1 (stereo not drawn) [Compound 700] |  | 0.008 to 0.04 µM | 
3 | O=C(Oc1ccc(F)cc1)N1CCc2c([nH]c3ccc(Cl)cc23)C1c1ccc(OCC(O)CO)cc1 (stereo not drawn) [Compound 627] | < 0.008 µM |  | 
4 | COc1ccc(C2c3[nH]c4ccc(Cl)cc4c3CCN2C(=O)Oc2ccc(Cl)cc2)cc1OCCCCN1CCOCC1 (stereo not drawn) [Compound 1097] |  | 0.04 to 0.2 µM | 
5 | O=C(Oc1ccc(Cl)cc1)N1CCc2c([nH]c3ccc(Cl)cc23)[C@H]1c1ccc(OCCCn2nccn2)cc1 [Compound 1127] | 0.04 to 0.2 µM |  | 
6 | CCCOC(=O)NCC(O)CCOc1ccc([C@H]2c3[nH]c4ccc(Cl)cc4c3CCN2C(=O)Oc2ccc(C)cc2)cc1 (stereo partly drawn) [Compound 1644] |  |  | EC50 [2]: < 0.008 µM
7 | CCS(=O)(=O)NCC(O)COc1ccc(C2c3[nH]c4ccc(Cl)cc4c3CCN2C(=O)Oc2ccc(Cl)cc2)cc1 (stereo not drawn) [Compound 1565] |  |  | EC50 [2]: 0.008 to 0.04 µM
8 | O=C(Oc1ccc(F)cc1)N1CCc2c([nH]c3ccc(Cl)cc23)C1c1ccc(OCCCCCCCl)cc1 (stereo not drawn) [Compound 723] | < 0.008 µM |  | 
9 | CN1CCCC(COc2ccc(C3c4[nH]c5ccc(Cl)cc5c4CCN3C(=O)Oc3ccc(Cl)cc3)cc2)C1 (stereo not drawn) [Compound 966] |  | 0.008 to 0.04 µM | 
10 | CN1C(=O)CN(CCCOc2ccc(C3c4[nH]c5ccc(Cl)cc5c4CCN3C(=O)Oc3ccc(Cl)cc3)cc2)C1=O (stereo not drawn) [Compound 1673] |  |  | EC50 [2]: < 0.008 µM
11 | CC(CO)(CO)COc1ccc([C@H]2c3[nH]c4ccc(Cl)cc4c3CCN2C(=O)Oc2ccc(Cl)cc2)cc1 [Compound 1230] | < 0.008 µM |  | 
12 | O=C(Oc1ccc(Cl)cc1)N1CCc2c([nH]c3ccc(Cl)cc23)C1c1ccc(Cl)cc1 (stereo not drawn) [Compound 351] | 0.008 to 0.04 µM |  | 
13 | O=C(Oc1ccc(F)cc1)N1CCc2c([nH]c3ccc(Cl)cc23)C1c1ccc(O)cc1 (stereo not drawn) [Compound 575] | 0.2 to 1 µM |  | 
14 | COc1ccc(OC(=O)N2CCc3c([nH]c4ccc(Cl)cc34)[C@@H]2c2ccc(OCC(C)(CO)CO)cc2)cc1 [Compound 1337] |  |  | EC50 [2]: 0.008 to 0.04 µM
15 | COCCN(C)CC(O)COc1ccc(C2c3[nH]c4ccc(Cl)cc4c3CCN2C(=O)Oc2ccc(Cl)cc2)cc1 (stereo not drawn) [Compound 964] |  | 0.008 to 0.04 µM | 
16 | O=C(Oc1ccc(F)cc1)N1CCc2c([nH]c3ccc(Cl)cc23)C1c1ccc(OCCCCn2ccnc2)cc1 (stereo not drawn) [Compound 742] | < 0.008 µM |  | 
17 | COCCOC(=O)NCC(O)CCOc1ccc([C@H]2c3[nH]c4ccc(Cl)cc4c3CCN2C(=O)Oc2ccc(Cl)cc2)cc1 (stereo partly drawn) [Compound 1637] |  |  | EC50 [2]: < 0.008 µM

Row | SMILES | EC50 [1] | EC50 (HeLa, read-out: ELISA EC50 μM) | other results
18 | CC(C)NCCCCCCOc1ccc(C2c3[nH]c4ccc(Cl)cc4c3CCN2C(=O)Oc2ccc(Cl)cc2)cc1 (stereo not drawn) [Compound 784] |  | < 0.008 µM | 
19 | COc1ccc(OC(=O)N2CCc3c([nH]c4ccc(Cl)cc34)C2c2ccc(S(C)(=O)=O)cc2)cc1 (stereo not drawn) [Compound 359] | 0.04 to 0.2 µM |  | 
20 | CS(=O)(=O)CCCOc1ccc(C2c3[nH]c4ccc(Cl)cc4c3CCN2C(=O)Oc2ccc(Cl)cc2)cc1 (stereo not drawn) [Compound 1551] |  |  | EC50 [2]: < 0.008 µM
21 | O=C(Oc1ccc(Cl)cc1)N1CCc2c([nH]c3ccc(Cl)cc23)[C@@H]1c1ccc(OC[C@@H](O)CN2CCOCC2)cc1 [Compound 1071] |  | < 0.008 µM | 
22 | O=C(NCC(O)COc1ccc(C2c3[nH]c4ccc(Cl)cc4c3CCN2C(=O)Oc2ccc(Cl)cc2)cc1)c1cccnc1 (stereo not drawn) [Compound 1561] |  |  | EC50 [2]: 0.008 to 0.04 µM
23 | Cc1ccc(C2c3[nH]c4ccc(Br)cc4c3CCN2C(=O)Oc2ccc(Cl)cc2)cc1 (stereo not drawn) [Compound 353] | < 0.008 µM |  | 
24 | CCN(CC)CCCOc1ccc(C2c3[nH]c4ccc(Cl)cc4c3CCN2C(=O)Oc2ccc(Cl)cc2)cc1 (stereo not drawn) [Compound 946] |  | 0.008 to 0.04 µM | 
25 | O=C(Oc1ccc(Cl)cc1)N1CCc2c([nH]c3ccc(Cl)cc23)C1c1ccc(OCC[C@H](O)CO)cc1 (stereo partly drawn) [Compound 1172] | < 0.008 µM |  | 
26 | O=C(Oc1ccc(Cl)cc1)N1CCc2c([nH]c3ccc(Cl)cc23)C1c1ccc(OC2CCOCC2)cc1 (stereo not drawn) [Compound 1578] |  |  | EC50 [2]: < 0.008 µM
27 | CS(=O)(=O)Nc1ccc(C2c3[nH]c4ccc(Cl)cc4c3CCN2C(=O)Oc2ccc(Cl)cc2)cc1 (stereo not drawn) [Compound 974] | 0.04 to 0.2 µM |  | 
28 | O=C(Oc1ccccc1Cl)N1CCc2c([nH]c3ccc(Cl)cc23)C1c1ccc(F)cc1 (stereo not drawn) [Compound 588] | 0.04 to 0.2 µM |  | 
29 | O=C(Oc1ccc(Cl)cc1)N1CCc2c([nH]c3ccc(Cl)cc23)C1c1ccc(OCCCCCCNCCO)cc1 (stereo not drawn) [Compound 782] |  | < 0.008 µM | 
30 | O=C(Oc1ccc(Cl)cc1)N1CCc2c([nH]c3ccc(Cl)cc23)[C@@H]1c1ccc(OCCC(O)Cn2ccnn2)cc1 (stereo partly drawn) [Compound 1281] | < 0.008 µM |  | 
31 | CN1CCCC1CCOc1ccc(C2c3[nH]c4ccc(Cl)cc4c3CCN2C(=O)Oc2ccc(F)cc2)cc1 (stereo not drawn) [Compound 1008] |  | 0.04 to 0.2 µM | 
32 | O=C(Oc1ccc(Cl)cc1)N1CCc2c([nH]c3ccc(Cl)cc23)C1c1ccc(OCCCN2CCOCC2)cc1 (stereo not drawn) [Compound 894] |  | < 0.008 µM | 
33 | COC(=O)[C@H]1CCCN1CCCOc1ccc(C2c3[nH]c4ccc(Cl)cc4c3CCN2C(=O)Oc2ccc(Cl)cc2)cc1 (stereo partly drawn) [Compound 1362] |  | < 0.008 µM | 
